# Experimental data from patent publication US20100099561A1, “HETEROBICYCLIC ALKYLTHIO-BRIDGED ISOXAZOLINES” (E.I. DU PONT DE NEMOURS AND COMPANY, priority 2008, published 2010).
# Tests used:
# Format in all cases: in vivo
# [1] = test system: barnyardgrass (Echinochloa crus-galli); test: Test A preemergence, barnyardgrass; conditions: 0 to 100 scale (0 no effect, 100 complete control)
# In short: (§1)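 Scores reflect visual plant injury on a 0 (no effect) to 100 (complete control) scale, assessed about ten days after application in the greenhouse. Compounds were delivered in a non-phytotoxic solvent blend with surfactant, either preemergence to soil or postemergence at one- to two-leaf stage.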
# [2] = test system: large crabgrass (Digitaria sanguinalis); test: Test A preemergence, large crabgrass; conditions: 0 to 100 scale (0 no effect, 100 complete control)
# In short: as §1
# [3] = test system: giant foxtail (Setaria faberi); test: Test A preemergence, giant foxtail; conditions: 0 to 100 scale (0 no effect, 100 complete control)
# In short: as §1
# [4] = test system: morningglory (Ipomoea spp.); test: Test A preemergence, morningglory; conditions: 0 to 100 scale (0 no effect, 100 complete control)
# In short: as §1
# [5] = test system: pigweed (Amaranthus retroflexus); test: Test A preemergence, pigweed; conditions: 0 to 100 scale (0 no effect, 100 complete control)
# In short: as §1
# [6] = test system: velvetleaf (Abutilon theophrasti); test: Test A preemergence, velvetleaf; conditions: 0 to 100 scale (0 no effect, 100 complete control)
# In short: as §1
# [7] = test system: wheat (Triticum aestivum); test: Test A preemergence, wheat; conditions: 0 to 100 scale (0 no effect, 100 complete control)
# In short: as §1
# corn (Zea mays) [8] = test: Test A preemergence, corn; conditions: 0 to 100 scale (0 no effect, 100 complete control)
# In short: as §1
# [9] = test system: giant foxtail (Setaria faberi); test: Test A postemergence, giant foxtail; conditions: 0 to 100 scale (0 no effect, 100 complete control)
# In short: as §1
# [10] = test system: catchweed bedstraw (Galium aparine); test: Test B preemergence, catchweed bedstraw; conditions: scale 0 to 100
# In short: (§2)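 After sowing in loam–sand, soil surfaces received the compound preemergence; greenhouse growth followed for 13–15 d. Control compared with untreated plants, scored 0–100.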
# [11] = test system: bermudagrass (Cynodon dactylon); test: Test B preemergence, bermudagrass; conditions: scale 0 to 100
# In short: as §2
# [12] = test system: Surinam grass (Brachiaria decumbens); test: Test B preemergence, Surinam grass; conditions: Preemergence, scale 0 to 100
# In short: as §2
# corn (Zea mays) [13] = test: Test B preemergence, corn; conditions: scale 0 to 100
# In short: as §2
# [14] = test system: large crabgrass (Digitaria sanguinalis); test: Test B preemergence, large crabgrass; conditions: scale 0 to 100
# In short: as §2
# [15] = test system: woolly cupgrass (Eriochloa villosa); test: Test B preemergence, woolly cupgrass; conditions: scale 0 to 100
# In short: as §2
# [16] = test system: nightshade (eastern black nightshade, Solanum ptycanthum); test: Test B preemergence, nightshade; conditions: scale 0 to 100
# In short: as §2
# soybean (Glycine max) = test: Test B preemergence, soybean; conditions: Preemergence, scale 0 to 100
# In short: as §2
# [17] = test system: velvetleaf (Abutilon theophrasti); test: Test B preemergence, velvetleaf; conditions: Preemergence, scale 0 to 100
# In short: as §2
# [18] = test system: umbrella sedge (Cyperus difformis); test: Test B flooded paddy test, umbrella sedge; conditions: Flood, scale 0 to 100
# In short: (§3)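 Paddy-water application to 2-leaf plants in pots held under 3 cm of flooding; response is a 0–100 visual control rating against controls after 13 to 15 days, and a dash marks a missing result.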
# [19] = test system: barnyardgrass (Echinochloa crus-galli); test: Test B flooded paddy test, barnyardgrass; conditions: Flood
# In short: as §3
compound,measurement,setting,value
"CC1(C)CC(S(=O)(=O)Cc2c(C(F)(F)F)nc3n(c2=O)CCCC3)=NO1 [Compound 8, 3-[[(4,5-dihydro-5,5-dimethyl-3-isoxazolyl)sulfonyl]methyl]-6,7,8,9-tetrahydro-2-(trifluoromethyl)-4H-pyrido[1,2-α]pyrimidin-4-one]","Plant response rating, Barnyardgrass",[1]; 125 g ai/ha,90
same,"Plant response rating, Barnyardgrass",[1]; 500 g ai/ha,90
same,"Plant response rating, Crabgrass, Large",[2]; 125 g ai/ha,90
same,"Plant response rating, Crabgrass, Large",[2]; 500 g ai/ha,100
same,"Plant response rating, Foxtail, Giant",[3]; 125 g ai/ha,100
same,"Plant response rating, Foxtail, Giant",[3]; 500 g ai/ha,100
same,"Plant response rating, Morningglory",[4]; 125 g ai/ha,20
same,"Plant response rating, Morningglory",[4]; 500 g ai/ha,90
same,"Plant response rating, Pigweed",[5]; 125 g ai/ha,30
same,"Plant response rating, Pigweed",[5]; 500 g ai/ha,100
same,"Plant response rating, Velvetleaf",[6]; 125 g ai/ha,20
same,"Plant response rating, Velvetleaf",[6]; 500 g ai/ha,90
same,"Plant response rating, Wheat",[7]; 125 g ai/ha,0
same,"Plant response rating, Wheat",[7]; 500 g ai/ha,60
same,"Plant response rating, Corn",corn (Zea mays) [8]; 125 g ai/ha,0
same,"Plant response rating, Corn",corn (Zea mays) [8]; 500 g ai/ha,20
same,"Plant response rating, Foxtail, Giant",[9]; 125 g ai/ha,70
same,"Plant response rating, Foxtail, Giant",[9]; 500 g ai/ha,90
same,"Plant response rating, Galium",[10]; 16 g ai/ha,0
same,"Plant response rating, Galium",[10]; 31 g ai/ha,0
same,"Plant response rating, Galium",[10]; 62 g ai/ha,100
same,"Plant response rating, Galium",[10]; 125 g ai/ha,100
same,"Plant response rating, Bermudagrass",[11]; 16 g ai/ha,100
same,"Plant response rating, Bermudagrass",[11]; 31 g ai/ha,100
same,"Plant response rating, Bermudagrass",[11]; 62 g ai/ha,100
same,"Plant response rating, Bermudagrass",[11]; 125 g ai/ha,100
same,"Plant response rating, Surinam Grass",[12]; 16 g ai/ha,65
same,"Plant response rating, Surinam Grass",[12]; 31 g ai/ha,95
same,"Plant response rating, Surinam Grass",[12]; 62 g ai/ha,100
same,"Plant response rating, Surinam Grass",[12]; 125 g ai/ha,100
same,"Plant response rating, Corn",corn (Zea mays) [13]; 16 g ai/ha,10
same,"Plant response rating, Corn",corn (Zea mays) [13]; 31 g ai/ha,15
same,"Plant response rating, Corn",corn (Zea mays) [13]; 62 g ai/ha,45
same,"Plant response rating, Corn",corn (Zea mays) [13]; 125 g ai/ha,55
same,"Plant response rating, Crabgrass, Large",[14]; 16 g ai/ha,95
same,"Plant response rating, Crabgrass, Large",[14]; 31 g ai/ha,95
same,"Plant response rating, Crabgrass, Large",[14]; 62 g ai/ha,100
same,"Plant response rating, Crabgrass, Large",[14]; 125 g ai/ha,100
same,"Plant response rating, Cupgrass, Woolly",[15]; 16 g ai/ha,85
same,"Plant response rating, Cupgrass, Woolly",[15]; 31 g ai/ha,95
same,"Plant response rating, Cupgrass, Woolly",[15]; 62 g ai/ha,95
same,"Plant response rating, Cupgrass, Woolly",[15]; 125 g ai/ha,100
same,"Plant response rating, Nightshade",[16]; 16 g ai/ha,0
same,"Plant response rating, Nightshade",[16]; 31 g ai/ha,65
same,"Plant response rating, Nightshade",[16]; 62 g ai/ha,75
same,"Plant response rating, Nightshade",[16]; 125 g ai/ha,98
same,"Plant response rating, Soybean",soybean (Glycine max); 16 g ai/ha,0
same,"Plant response rating, Soybean",soybean (Glycine max); 31 g ai/ha,0
same,"Plant response rating, Soybean",soybean (Glycine max); 62 g ai/ha,0
same,"Plant response rating, Soybean",soybean (Glycine max); 125 g ai/ha,0
same,"Plant response rating, Velvetleaf",[17]; 16 g ai/ha,0
same,"Plant response rating, Velvetleaf",[17]; 31 g ai/ha,0
same,"Plant response rating, Velvetleaf",[17]; 62 g ai/ha,35
same,"Plant response rating, Velvetleaf",[17]; 125 g ai/ha,45
same,"Plant response rating, Sedge, Umbrella",[18]; 62 g ai/ha,0
same,"Plant response rating, Sedge, Umbrella",[18]; 250 g ai/ha,20
same,"Plant response rating, Barnyardgrass","[19]; 62 g ai/ha, scale 0 to 100",0
same,"Plant response rating, Barnyardgrass","[19]; 250 g ai/ha, scale 0 to 100 (0 no effect, 100 complete control)",0
